Experiments:
[1] = molecular target: T1, Mdm2/p53 binding (Homo sapiens, UniProt Q00987, L33E); experiment: Mdm2/p53 binding assay (HTRF, His-p53 and GST-Mdm2); settings: His-p53 (aa 1-132) and GST-Mdm2 (aa 25-108, L33E), 6.25 nM each, 25° C. for 1 hour
T1 construct: Mdm2 amino acids at positions 25 to 108
Method: Next, a test compound was diluted with DMSO to produce protein buffer solution containing 10% dilution, and this buffer solution was added in an amount of 4 μL/well to the plate.
These dilutions were added in an amount of 8 μL/well (total reaction solution volume: 20 μl/well). Then, the plate was left at 25° C. for 1 hour.
The R value calculated from the well supplemented with His-p53, GST-Mdm2, the test compound, and each antibody was defined as R (sample). The R value calculated from the well supplemented with His-p53, GST-Mdm2, and each antibody but without the test compound was defined as R (control). The R value calculated from the well supplemented with GST-Mdm2, the test compound, and each antibody but without His-p53 was defined as R (background). T/C was calculated from the formula shown below. An IC50 value for Mdm2/p53 binding was calculated by sigmoid fitting. T/C=(R(sample)−R(background))/(R(control)−R(background))

[2] = system: human lung cancer-derived cell line NCI-H460 having wild-type p53; experiment: Cell growth inhibition assay (MTT); type: cell-based; settings: 72 h, NCI-H460 cells, culturing 3 days, read-out: anti-cellular effect GI50 (50% growth inhibition concentration)
Method: A cell growth inhibition assay was conducted using human lung cancer-derived cell line NCI-H460 having wild-type p53.
NCI-H460 cells were suspended in a medium (RPMI1640 medium containing 10% fetal bovine serum) and the suspension was inoculated in an amount of 500 cells/150 μL/well to a 96-well multiwell plate. A test compound was dissolved in DMSO and this solution was diluted with medium to prepare a sample solution (DMSO concentration: 1% or lower). On the next day of inoculation, medium nonsupplemented with the test compound or the sample solution was added in an amount of 50 μL/well. The MTT assay was conducted immediately after the medium was added in an amount of 50 μL on the next day of cell inoculation, and after the sample solution or the medium was added to cells followed by culturing at 37° C. for 3 days in a 5% CO2 atmosphere. The MTT assay was conducted as shown below.
A 5 mg/mL MTT (3-(4,5-dimethylthiazol-2-yl)-2,5-diphenyltetrazolium bromide, Sigma-Aldrich Co., M-2128) solution was prepared using a phosphate buffer solution (Dulbecco's Phosphate-buffered Saline). This MTT solution was added in an amount of 20 μL/well. Then, the plate was cultured at 37° C. for 4 hours in a 5% CO2 atmosphere. The plate was centrifuged at 1200 rpm for 5 minutes and then the culture supernatant was removed by aspiration using a dispenser. DMSO was added in an amount of 150 μL/well to dissolve generated formazan. The plate was stirred using a plate mixer for uniform color development from each well. The absorbance of each well was measured under conditions of OD 540 nm and reference 660 nm using a plate reader (SpectraMax PLUS384, Molecular Devices, CA, USA).
The OD value measured on the day of adding the sample solution was defined as S. The OD value measured three days after addition of the sample solution was defined as T. The OD value measured three days after addition of the DMSO dilution was defined as C. T/C (%) was determined at each concentration according to the calculation formula shown below to prepare a dose response curve, from which 50% growth inhibition concentration (GI50 value) was calculated. T/C(%)=(T−S)/(C−S)×100

[3] = Metabolic stability test (microsomal metabolism); type: in vitro ADME; settings: human liver microsomes, 37° C., 30 minutes after addition of NADP+; also: tested at 1.1 µM
Method: 100 μL of 100 mM phosphate buffer solution (pH 7.4) containing 3 μM test compound was added to 100 μL of reaction solution containing 100 mM phosphate buffer solution (pH 7.4), 30 mM glucose 6-phosphate, 10 mM MgCl2.6H2O, 3 units/mL glucose 6-phosphate 1-dehydrogenase, and 0.3 to 1.5 mgP/mL human liver microsomes and the mixture was incubated at 37° C. for 20 minutes. Then, 70 μL of 100 mM phosphate buffer solution (pH 7.4) containing 3 mM NADP+ was added and the mixture was further incubated at 37° C. for 30 minutes to conduct a microsomal metabolism test. The compound was quantified by the internal standard method using a quadrupole mass spectrometer connected to a high performance liquid chromatography apparatus. The metabolic stability (residual percentage of compound: MS %) was determined according to the following formula: MS(human)(%)=(peak area ratio of test compound after addition of NADP+ and incubation for 30 minutes)/(peak area ratio of test compound before addition of NADP+)×100.
(peak area ratio: peak area of test compound divided by that of internal standard substance)

T1 sequence (Q00987 25-108 L33E): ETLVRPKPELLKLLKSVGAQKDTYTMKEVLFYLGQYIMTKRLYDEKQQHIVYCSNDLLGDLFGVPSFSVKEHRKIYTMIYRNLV

In the case of `CC(C)C1=C(C(=O)N2C[C@H](F)C[C@H]2C(=O)N2CC3(CC3)NC[C@H]2CO)SC2=N[C@@](C)(c3ccc(Cl)nc3)[C@@H](c3ccc(Cl)c(F)c3)N21` [Example 12, {(6S)-7-[(4R)-1-{[(5R,6S)-5-(4-chloro-3-fluorophenyl)-6-(6-chloropyridin-3-yl)-3-isopropyl-6-methyl-5,6-dihydroimidazo[2,1-b][1,3]thiazol-2-yl]carbonyl}-4-fluoro-L-prolyl]-4,7-diazaspiro[2.5]oct-6-yl}methanol], the IC50 [1] is reported as 5 nM, the GI50 [2] is reported as 400 to 2500 nM and the “MS (human) % (metabolic stability, residual percentage of compound)” value [3] is reported as 69%.

In the case of `CC(C)C1=C(C(=O)N2C[C@H](F)C[C@H]2C(=O)N2CC3(CC3)NC[C@@H]2C(=O)O)SC2=N[C@@](C)(c3ccc(Cl)nc3)[C@@H](c3ccc(Cl)c(F)c3)N21.Cl.Cl` [Example 13, (6R)-7-[(4R)-1-{[(5R,6S)-5-(4-chloro-3-fluorophenyl)-6-(6-chloropyridin-3-yl)-3-isopropyl-6-methyl-5,6-dihydroimidazo[2,1-b][1,3]thiazol-2-yl]carbonyl}-4-fluoro-L-prolyl]-4,7-diazaspiro[2.5]octane-6-carboxylic acid dihydrochloride], the IC50 [1] is reported as 5.4 nM, the GI50 [2] is reported as 400 to 2500 nM and the “MS (human) % (metabolic stability, residual percentage of compound)” value [3] is reported as 100%.

In the case of `CC(C)C1=C(C(=O)N2C[C@H](F)C[C@H]2C(=O)N2CC3(CC3)NC[C@H]2C(=O)O)SC2=N[C@@](C)(c3ccc(Cl)nc3)[C@@H](c3ccc(Cl)c(F)c3)N21` [Example 14], the IC50 [1] is reported as 16 nM, the GI50 [2] is reported as 400 to 2500 nM and the “MS (human) % (metabolic stability, residual percentage of compound)” value [3] is reported as 100%.

In the case of `CC(C)C1=C(C(=O)N2C[C@H](F)C[C@H]2C(=O)N2CCN(C)C3(CC3)C2)SC2=N[C@@](C)(c3ccc(Cl)nc3)[C@@H](c3ccc(Cl)c(F)c3)N21` [Example 15, 7-[(4R)-1-{[(5R,6S)-5-(4-chloro-3-fluorophenyl)-6-(6-chloropyridin-3-yl)-3-isopropyl-6-methyl-5,6-dihydroimidazo[2,1-b][1,3]thiazol-2-yl]carbonyl}-4-fluoro-L-prolyl]-4-methyl-4,7-diazaspiro[2.5]octane], the IC50 [1] is reported as 2.7 nM, the GI50 [2] is reported as < 400 nM and the “MS (human) % (metabolic stability, residual percentage of compound)” value [3] is reported as 44%.

In the case of `CC(C)C1=C(C(=O)N2C[C@H](F)C[C@H]2C(=O)N2CC3(CC3)N(C)C[C@@H]2C)SC2=N[C@@](C)(c3ccc(Cl)nc3)[C@@H](c3ccc(Cl)c(F)c3)N21` [Example 16], the IC50 [1] is reported as 2.3 nM, the GI50 [2] is reported as < 400 nM and the “MS (human) % (metabolic stability, residual percentage of compound)” value [3] is reported as 56%.

With `CC(C)C1=C(C(=O)N2C[C@H](F)C[C@H]2C(=O)N2CC3(CC3)N(C)C[C@H]2C)SC2=N[C@@](C)(c3ccc(Cl)nc3)[C@@H](c3ccc(Cl)c(F)c3)N21` [Example 17] the IC50 [1] was 3.3 nM, the GI50 [2] was 400 to 2500 nM and the “MS (human) % (metabolic stability, residual percentage of compound)” value [3] was 44%.

With `CC(C)C1=C(C(=O)N2C[C@H](F)C[C@H]2C(=O)N2CCNC3(CC3)C2)SC2=N[C@@](C)(c3ccc(Cl)cc3)[C@@H](c3ccc(Cl)cc3)N21` [Example 18] the IC50 [1] was 1.6 nM, the GI50 [2] was < 400 nM and the “MS (human) % (metabolic stability, residual percentage of compound)” value [3] was 6%.

In the case of `CC(C)C1=C(C(=O)N2C[C@H](F)C[C@H]2C(=O)N2CC3(CC3)NC[C@@H]2C)SC2=N[C@@](C)(c3ccc(Cl)cc3)[C@@H](c3ccc(Cl)cc3)N21` [Example 19], the IC50 [1] is reported as 1.6 nM, the GI50 [2] is reported as < 400 nM and the “MS (human) % (metabolic stability, residual percentage of compound)” value [3] is reported as 93%.

In the case of `CC(C)C1=C(C(=O)N2C[C@H](F)C[C@H]2C(=O)N2CC3(CC3)NC[C@H]2C)SC2=N[C@@](C)(c3ccc(Cl)cc3)[C@@H](c3ccc(Cl)cc3)N21` [Example 20], the IC50 [1] is reported as 1.4 nM, the GI50 [2] is reported as < 400 nM and the “MS (human) % (metabolic stability, residual percentage of compound)” value [3] is reported as 36%.

In the case of `CC[C@H]1CNC2(CC2)CN1C(=O)[C@@H]1C[C@@H](F)CN1C(=O)C1=C(C(C)C)N2C(=N[C@@](C)(c3ccc(Cl)cc3)[C@H]2c2ccc(Cl)cc2)S1` [Example 21], the IC50 [1] is reported as 2.2 nM, the GI50 [2] is reported as < 400 nM and the “MS (human) % (metabolic stability, residual percentage of compound)” value [3] is reported as 96%.
